Assay results reported in patent publication US11260062B2, “Pharmaceutical composition for treatment of lung cancer comprising glucocorticoid-based compound” (AJOU UNIVERSITY INDUSTRY-ACADEMIC COOPERATION FOUNDATION, priority 2015, dated 2022).
Residues, ends and D or L forms follow the SMILES beside them. *: point of attachment. Cbz = O=C(OCc1ccccc1)*

Columns and labels:
[1] = tested on: NRF2; test: Western blotting of NRF2 protein in A549 cells; type: cell-based
Experimental: (§1) Specifically, for Western blotting, the A549 cells expressing Tet-pLKO-NCshRNA (negative control) and three Tet-pLKO-NRF2 shRNAs were treated with doxycycline for 3 days and 6 days, followed by separation of proteins. Each separated 10 μg of the protein was loaded on 8% acrylamide gel, electrophoresed, transferred to nitrocellulose (NC) membrane, and NRF2 antibody (Cell signaling, 1:1000) and actin antibody (SCBT, 1:1000) were diluted in TBST (Tris-Buffered Saline with Tween 20) buffer containing 5% skim milk and reacted overnight at 4° C. Subsequently, the secondary antibody was reacted for 1 hour, washed with TBST, and the protein expression level was measured using ECL (Enhanced chemiluminescence).
Firstly, the A549-tet-on cells transfected with the vector containing GCR-shRNA were constructed and after the treatment with doxycycline and clobetasol propionate, and protein extracts were prepared by hemolysis with cell lysis buffer (Cell signaling technology) supplemented with protease inhibitor cocktail (EMD millipore) to perform Western blotting. Then, western blotting was carried out in the same manner as in the Example 1. At this time, the concentration of the protein was determined by performing a Bradford assay according to the Example 1. In addition, luciferase assays were carried out in the same manner as in the Example 1.
(§2) According to accumulated research results, NRF2 protein levels can be regulated by mRNA transcription, or proteasome related degradation. To confirm whether NRF2 is suppressed through mRNA transcription inhibition or NRF2 is suppressed by promoting proteasome-related degradation, real-time PCR was performed on the cells, and MG132, a proteasome inhibitor, was treated and Western blotting was performed in the same manner as in the Example 1.
In general, proteasome degradation of the NRF2 protein consists of two pathways as shown in FIG. 5a: i.e. a pathway by KEAP1 and a pathway by GSK3-β-TrCP. […]

[2] = tested on: NRF2; test: Western blotting of nuclear and cytoplasmic fractions (NRF2 migration to the nucleus); type: cell-based
Text: Furthermore, GSK3 inhibits the migration of NRF2 to the nucleus, as known so far.

[3] = tested on: NRF2; test: ARE-luciferase assay for NRF2 activity in A549-ARE cells; type: cell-based
Experimental: In addition, A549-ARE cells were firstly dispensed into 5×10^3 cells per well in a 96 well plate, and each of the clinical compounds was treated with various concentrations (1 μM or 5 μM) after 24 hours. After 24 hours, 30 μl of a lysis buffer was added, and the mixture was dissolved at 4° C. for 40 minutes using a rocker. 20 μl of the dissolved product was added to a 96-well white plate and 100 μl of a luciferase substrate buffer having the following composition was added thereto and luciferase activity was measured by using a plate reader.
The remaining dissolved product was diluted five times with distilled water (DW) and the protein concentration was measured by the Bradford assay (BioRad). Specifically, 200 μl of the Bradford reagent (Coomassie Brilliant Blue G-250) diluted […] with distilled water was reacted with 5 μl of the remaining dissolved product and absorbance was measured at 595 nm. The protein concentration of the dissolved products was calculated by the same experiment using BSA solution as a standard protein. The luciferase value was calibrated by dividing the luciferase value measured above by the measured protein concentration.
Namely, the luciferase assays were performed using […] cells as the method of the Example 1.

[4] = tested on: H460; test: Soft agar assay, H460; type: cell-based; settings: H460 (KEAP1-mutant, LKB1-mutant), sole treatment
Experimental: (§3) The synergistic anticancer effects of the treatment of clobetasol propionate sole and the combined use with rapamycin, an mTOR inhibitor on LKB1/KEAP1 normal lung cancer cell line H1299, KEAP1 mutant cell line H2228, LKB1/KEAP1 mutant lung cancer cell lines A549 and H460 were analyzed by soft agar assay. In order to confirm whether the tumor inhibitory effect of clobetasol propionate was due to NRF2 inhibition, the effect was compared with tumor suppression effect in NRF2 knock-down lung cancer cell line using NRF2-shRNA-2, which was used in the Example 2.
(§4) Specifically, […] of a 0.7% agar-containing DMEM medium was added into a 12-well plate and was solidified (bottom agar) and 300 μl of a DMEM medium containing 3×10^3 cells and 0.35% agar was placed on the solidified agar medium and solidified (top agar+/− Doxycycline). After solidification, 250 μl of DMEM medium (+/− Doxycycline) was added and the number of colonies formed after culturing for 2 weeks in a CO2 incubator was determined, and the result was shown in FIGS. 7a to 7e.
Thereafter, the synergistic effect was analyzed when clobetasol propionate and rapamycin were simultaneously treated, or NRF2 was knocked down using NRF2-shRNA and treated with rapamycin.

[5] = tested on: NRF2; test: Real-time PCR of NRF2 mRNA in A549 cells; type: cell-based
Experimental: as §2
Specifically, for real-time PCR, total RNA was extracted from A549 cells using TRIZol (Invitrogen). Then, 1 μg of total RNA was reverse transcribed to cDNA using oligo dT primer and SuperScript II Reverse Transcriptase according to the manufacturer's instructions (Invitrogen). Thereafter, PCR was performed according to the manufacturer's instructions (Affymetrix) using HotStart-IT SYBR Green qPCR Master Mix.

[6] = tested on: NRF2 target proteins (G6PD, PGD, ME1, GCLM, AKR1B10 and AKR1C3); test: Western blotting of NRF2 target proteins in KEAP1 mutant cells; type: cell-based; settings: 2, 4 or 5 days
Experimental: In order to confirm the effect of glucocorticoid on cells having high NRF2-activity, KEAP1 mutant cells (A549 and H2228) were treated with clobetasol propionate for 2 days, 4 days or 5 days, the expression of major NRF2 target proteins (G6PD, PGD, ME1, GCLM, AKR1B10 and AKR1C3) associated with redox regulation was measured by the Western blotting. As a control, the cell was used, in which NRF2-shRNA was transformed to H2228 cell line to inhibit NRF2 expression.

[7] = tested on: H2228; test: Soft agar assay, H2228; type: cell-based; settings: H2228 (KEAP1-mutant, LKB1-normal), 2 weeks
Experimental: as §3, §4

[8] = tested on: A549; test: Soft agar assay, A549; type: cell-based; settings: A549 (KEAP1-mutant, LKB1-mutant), 2 weeks
Experimental: as §3, §4

[9] = tested on: H1299; test: Soft agar assay, H1299; type: cell-based; settings: H1299 (KEAP1-normal, LKB1-normal), 2 weeks
Experimental: as §3, §4

[10] = tested on: A549-luc-C8 cells; test: Xenograft assay with A549 cell line, tumor volume; type: in vivo, Balb/c-nu mice; settings: 40 days
Text: Thereafter, mice were sacrificed in a 7.5% CO2 chamber and tumors were obtained for further analysis.

[11] = Xenograft assay, body weight / side effects; type: in vivo, Balb/c-nu mice; settings: all treatment groups, 40 days
Experimental: On the other hand, xenograft assay was performed using A549 cell line. Specifically, Balb/c-nu mice (6-8 weeks of age, Orient Bio, Seongnam, Korea) were prepared to perform tumor genografts and A549-luc-C8 cells (Perkin Elmer, 5.0×10^6/head) were injected subcutaneously into the mice. Two weeks later, when the size of tumors reached 50-100 mm^3, mice were divided to 6 groups: a control group administered with only vehicle (200 μl of PBS containing 1.2% DMSO, 0.25% PEG 400 and 0.25% tween 80), a group administered with 0.5 mg/kg of clobetasol propionate (CP), a group administered with 1 mg/kg of clobetasol propionate, a group administered with 1 mg/kg of rapamycin, and Combination 1 (CP 0.5 mg/kg+rapamycin 1 mg/kg) and Combination 2 (CP 1 mg/kg+rapamycin 1 mg/kg). Then, for the next 40 days, the vehicle and rapamycin (n=5 per group) were injected intraperitoneally daily (5 days per week) and clobetasol propionate was injected intraperitoneally once every 2 days (3 days per week).
Primary tumor size and body weight were measured every 3 to 4 days by a caliper and a balance, and the volume of the tumor was V (mm^3)=(A×B^2)/2 (V is volume, A Is the long diameter and B is the short diameter).

[12] = tested on: A549 and H2228 cell lines; test: Hydrogen peroxide (active oxygen) measurement with CMH2DCF-DA; type: cell-based
Experimental: In addition, because ME1 and GCLM proteins have detoxification activity of hydrogen peroxide, to confirm this change, the amount of hydrogen peroxide after the treatment with clobetasol propionate was measured as follows: The A549 and H2228 cell lines were cultured in 5 μM CMH2DCF-DA (Invitrogen) after the incubation for 30 minutes, the cultured cells were washed twice with phosphate buffered saline and incubated in the dark for 40 minutes with 90% dimethylsulfoxide (DMSO) and 10% PBS, and the fluorescent dye was released. After the culture, the supernatant of the culture liquid was dispensed into a 96-well plate and the amount of fluorescence was measured at 480/530 nm. For standardization of the measured fluorescence intensity, the cells remaining after removing the supernatant and washing with PBS, were stained with a crystal violet solution (20% methanol and 0.5% crystal violet) for 10 minutes at room temperature. After washing three times, the incubation was performed for solubilization in 1% SDS solution and absorbance at 570 nm was measured.

[13] = tested on: NRF2; test: Verification of doxycycline-inducible NRF2-shRNA in A549-ARE cells (Western blotting, luciferase, GFP); type: cell-based; settings: doxycycline-induced, compared among three NRF2-shRNAs
Experimental: In order to construct a Tet-inducible shRNA expression system, the following shRNAs were inserted into a tet-pLKO-pyro vector (Dmitri Wiederschain: Addgene plasmid #21915) and then A549-ARE cell line expressing doxycycline-inducible NRF2-shRNA was established by the transduction.
Then, 0.2 μg/mL of doxycycline (DOX; Clontech) was treated every 2 days in the medium to induce NRF2-shRNA expression. Thereafter, the NRF2 expression inhibition efficiency was verified by Western blotting, luciferase activity measurement and GFP expression measurement using a fluorescence microscope.
as §1

[14] = KEAP1 mutant A549 cells, co-treatment with clobetasol propionate
[15] = co-treatment with clobetasol propionate
[16] = A549-tet-on GCR-shRNA cells, effect blocked by inhibition of GCR expression

Compound: Cc1c[nH]c(-c2cnc(NCCNc3ccc(C#N)cn3)nc2-c2ccc(Cl)cc2Cl)n1 [GSK3 inhibitor, CT99021]
- NRF2 proteolysis induced by clobetasol propionate, on GSK3 inhibitor treatment [1, 14]: inhibited
- effect of clobetasol propionate on NRF2 migration into the nucleus, on GSK3 inhibitor treatment ([2]; under the treatment of MG132, co-treatment with clobetasol propionate): completely blocked
- inhibition of activity of NRF2 induced by clobetasol propionate, on GSK3 inhibitor treatment [3, 14]: inhibited

Compound: CC(C)C[C@@H](C=O)NC(=O)[C@H](CC(C)C)NC(=O)[C@H](CC(C)C)NC(=O)OCc1ccccc1 [MG132] (Cbz-Leu-Leu-Leu-aldehyde)
- amount of NRF2 protein inhibited by clobetasol propionate, on MG132 treatment [1, 15]: recovered
- inhibition of NRF2 activity by glucocorticoids, on MG132 treatment [3, 15]: does not recover

Compound: CCC(=O)O[C@]1(C(=O)CCl)[C@@H](C)C[C@H]2[C@@H]3CCC4=CC(=O)C=C[C@]4(C)[C@@]3(F)[C@@H](O)C[C@@]21C [clobetasol propionate]
- cell growth (colonies in soft agar) [4]: slightly inhibited
- mRNA level of NRF2 [5]: did not affect
- NRF2 target protein expression ([6]; A549 cell line): effectively inhibited
- expression of NRF2 target which has antioxidative activity ([6]; H2228 cell line): effectively inhibited
- level of the NRF2 protein (Western blot) [1, 16]: significantly reduced
- cell growth (colonies in soft agar) [7]: strongly inhibited
- cell growth (colonies in soft agar) [8]: strongly inhibited
- migration of NRF2 into the nucleus ([2]; under the treatment of MG132): inhibited
- cell growth (colonies in soft agar) [9]: did not significantly affect
- anticancer effect (tumor volume) ([10]; 0.5 mpk intraperitoneally once every 2 days): distinct anticancer effect
- anticancer effect (tumor volume) ([10]; 1 mpk intraperitoneally once every 2 days): distinct anticancer effect
- time for which inhibition of NRF2 activity was maintained ([3]; 100 nM, measured at 8, 24 and 48 hours): at least 48 hours
- NRF2 inhibitory effect at 1 μM compared among 13 GCs-based drugs ([3]; 1 μM): most excellent inhibitory effect
- activity of the NRF2 protein (luciferase) [3, 16]: significantly reduced
- concentration from which excellent NRF2 inhibitory effect is shown (luciferase) ([3]; concentration comparison of 13 GCs-based drugs): ≥ 1 nM
- body weight of the mice [11]: no significant change
- active oxygen (hydrogen peroxide) ([12]; A549): significantly increased
- active oxygen (hydrogen peroxide) ([12]; H2228): significantly increased

Compound: CO[C@H]1C[C@@H]2CC[C@@H](C)[C@@](O)(O2)C(=O)C(=O)N2CCCC[C@H]2C(=O)O[C@H]([C@H](C)C[C@@H]2CC[C@@H](O)[C@H](OC)C2)CC(=O)[C@H](C)/C=C(\C)[C@@H](O)[C@@H](OC)C(=O)[C@H](C)C[C@H](C)/C=C/C=C/C=C/1C [rapamycin]
- body weight of the mice [11]: no significant change

Compound: NRF2sh-2: doxycyclin-inducible NRF2-shRNA, SEQ. NO. 2 of Table 1 (CCGGGCTCCTACTGTGATGTGAAATCTCGAGATTTCACATCACAGTAGGAGCTTTTTG)
- inhibition of NRF2 protein expression, luciferase activity and GFP signal [13]: most effectively
